Source: patent publication US4666892A, “Method and composition for hepatitis treatment with pyrimidine nucleoside compounds” (Sloan-Kettering Memorial Cancer Center, priority 1986, dated 1987)
Converted amounts (≈) assume the structure as drawn. Where two headings read alike, the source gives them in different places.

Tests used:
[1] = target: T1, HBV DNA polymerase (Hepatitis B virus genotype D subtype ayw, UniProt P03156); assay: Time course of viral DNA synthesis with the analog as alternate substrate; type: biochemical, hepatitis B virion (HBV); settings: for DNA synthesis when the natural triphosphate is substituted by the analog: ara-TTP for dTTP, ara-CTP for dCTP, ACVTP for dGTP; for Viral DNA syntheses with dTTP substituted by the analog: [3H] dATP labelled substrate
T1 construct: HBV particles containing DNA polymerase activity were purified from the serum of an immunosuppressed patient; from tissue; host or cells: virus particles purified from the serum of an HBsAg-positive immunosuppressed patient
T1 sequence (P03156 whole entry): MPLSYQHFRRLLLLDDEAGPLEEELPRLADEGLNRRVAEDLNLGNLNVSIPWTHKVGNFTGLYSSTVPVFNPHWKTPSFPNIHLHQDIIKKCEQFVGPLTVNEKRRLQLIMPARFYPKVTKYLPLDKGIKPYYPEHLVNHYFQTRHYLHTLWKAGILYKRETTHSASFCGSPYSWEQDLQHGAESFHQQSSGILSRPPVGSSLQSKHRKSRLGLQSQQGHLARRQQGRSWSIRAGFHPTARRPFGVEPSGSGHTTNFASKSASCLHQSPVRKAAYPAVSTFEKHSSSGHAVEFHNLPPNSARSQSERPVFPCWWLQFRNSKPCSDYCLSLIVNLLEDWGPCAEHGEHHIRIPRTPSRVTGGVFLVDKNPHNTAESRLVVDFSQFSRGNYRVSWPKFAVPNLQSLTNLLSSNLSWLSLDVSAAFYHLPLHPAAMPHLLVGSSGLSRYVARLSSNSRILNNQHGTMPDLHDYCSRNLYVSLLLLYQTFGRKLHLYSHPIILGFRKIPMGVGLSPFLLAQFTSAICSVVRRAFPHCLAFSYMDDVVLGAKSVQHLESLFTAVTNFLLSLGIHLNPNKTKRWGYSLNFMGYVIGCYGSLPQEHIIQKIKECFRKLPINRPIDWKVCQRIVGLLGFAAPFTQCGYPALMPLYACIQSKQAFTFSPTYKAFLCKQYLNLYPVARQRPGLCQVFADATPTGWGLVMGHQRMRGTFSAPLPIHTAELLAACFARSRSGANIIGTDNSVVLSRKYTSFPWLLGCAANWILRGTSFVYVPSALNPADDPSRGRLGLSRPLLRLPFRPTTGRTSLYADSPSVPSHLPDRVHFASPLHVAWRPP
Procedure: (§1) DNA polymerase was assayed as described by Kaplan et al (J. Virol., 12, 995 (1973)) with minor modification. The assay was performed in a 50 ul reaction mixture containing 50 mM Tris-HCl pH=7,6,40 mM MgC12, 60 mM NH4 Cl, 100 uM each dATP, dCTP and dGTP, 0.2-0.7 uM [^3 H] dTTP (30 Ci/mmol), 10 mM 2-mercaptoethanol, 0.5% Nonidet P 40 and enzyme. The reaction was started by addition of the virus particles with 2-mercaptoethanol and Nonidet P 40. Incubation was at 37° C. for 1 h. Acid insoluble radioactive material was collected on a glass fiber filter (GF/C Whatman) Filters were washed 5 times with cold 5% trichloracetic acid containing 10 mM sodium pyrophosphate, then with 95% ethanol. Radioactivity of the dried filter was measured in a liquid scintillation counter.
The [^32 p] DNA product by the endogenous DNA polymerase reaction was analysed by agarose gel electrophoresis as described by Summers et al (Proc. Natl. Acad. Sci. U.S.A. 72, 4597-4601 (1975)). The reaction was made in 15 ul of the standard DNA polymerase mixture with 1 uM of [^32 p] dCTP (500 Ci/mmol) as labelled nucleotide.
After 2 h incubation at 37° C., the reaction was terminated by the addition of 20 ul of 10 mM Tris, 10 mM EDTA, 0, 1 mg per ml of proteinase K, 0, 1% (wt/vol) sodium dodecyl sulfate, followed by further incubation for 60 mn at 37° C. 5 ul of 5% (wt/vol) sucrose, 1% bromophenol blue was added, the entire mixture was heated for […] at 65° C., immediately colded at 4° C. and then analyzed by electrophoresis on a horizontal slab gel of 1% agarose. After electrophoresis, the gel was dried and developed by autoradiography.
To determine the effect of the three analogs on viral DNA synthesis, a time course experiment was performed with HBV DNA polymerase. [^3 ] dATP was used as the labelled substrate. […] The substitution of dTTP by BVdUTP permitted the viral DNA syntheses up to 46 percent of the control after 3 h of reaction. This value increased to 67 percent of the optimal activity after 4 h of reaction. […] The DNA synthesized with BVdUTP as alternate substrate was analyzed by agarose gel electrophoresis.

[2] = target: T1, HBV DNA polymerase; assay: HBV endogenous DNA polymerase assay, inhibition by nucleoside triphosphate analogs; type: biochemical, hepatitis B virion (HBV); settings: for ID50 relative to ID50 of FIACTP: times more than FIACTP; for Nature of inhibition (Lineweaver-Burk plots): versus dGTP (ACVTP), dCTP (FIACTP), dTTP (BVdUTP); for Relative efficiency as inhibitor of HBV DNA polymerase: excess of nucleotides (50 uM)
Source text: (§2) HBV particles containing DNA polymerase activity were purified from the serum of an immunosuppressed patient, positive for HBsAg. WHV was obtained from a serum pool of five woodchucks (Marmota monax) chronic carriers of the virus. The woodchucks initially imported from Pennsylvania (Dutchland Lab. Pennsylvania, USA) belonged to a colony followed for over one year by serological tests (Hantz et al, J. Virol. Metho. 7, 45-55 (1983)).
(§3) Virus was purified by centrifugation on sucrose and isopycnic CsCl gradients. (Hantz et al submitted for publication).
as §1
(§4) The relative sensitivities of both enzymes to CVTP, FIACTP and BVdUTP were compared using an excess of nucleotides. For each inhibitor, the concentration of the corresponding radioactive triphosphate was maintained at 2 to 3 times the Km value while the remaining nucleotides were in great excess (50 uM).
(§5) Although the mode of action for the various compounds is known to be different, the nature of ACVTP, FIACTP and BVdUTP inhibition of viral DNA synthesis catalyzed by HBV and WHV DNA polymerases was examined by determining the extent of inhibition with increasing concentrations of the substrates. In assays with ACVTP, [^3 H] dGTP was the rate limiting substrate while the other three nucleotides were in excess. The same conditions were used with [^3 H] dCTP for FIACTP and [^3 H] dTTP for BVdUTP inhibition. […] Similar results were obtained for WHV DNA polymerase.

[3] = target: T1, HBV DNA polymerase; assay: Time course of HBV DNA synthesis, normal substrate added after 120 min with analog; type: biochemical, hepatitis B virion (HBV); settings: for HBV DNA synthesis after addition of the normal substrate at 120 min of reaction with the analog: ACVTP 5 uM then 100 um dGTP, ara-ATP then dATP, ara-CTP then dCTP
Procedure: as §1
The effect of ACVTP on HBV DNA synthesis was also studied in a time course experiment ^3 H] dTTP was the labelled substrate. The reaction was initiated without dGTP or with 5 um ACVTP instead of dGTP. […] After 120 min of reaction, 100 uM of dGTP was added. In the assay without dGTP only, the addition of dGTP increased DNA synthesis as expected.

[4] = target: T2, WHV DNA polymerase (Woodchuck hepatitis B virus, UniProt P03160); assay: WHV endogenous DNA polymerase assay, inhibition by nucleoside triphosphate analogs; type: biochemical; settings: for ID50 relative to ID50 of FIACTP: times more than FIACTP; for Affinity of WHV DNA polymerase to the analog compared with HBV DNA polymerase: WHV versus HBV DNA polymerase
T2 construct: WHV was obtained from a serum pool of five woodchucks (Marmota monax) chronic carriers of the virus; from tissue; host or cells: virus particles purified from a serum pool of five chronically infected woodchucks (imported from Pennsylvania)
T2 sequence (P03160 whole entry): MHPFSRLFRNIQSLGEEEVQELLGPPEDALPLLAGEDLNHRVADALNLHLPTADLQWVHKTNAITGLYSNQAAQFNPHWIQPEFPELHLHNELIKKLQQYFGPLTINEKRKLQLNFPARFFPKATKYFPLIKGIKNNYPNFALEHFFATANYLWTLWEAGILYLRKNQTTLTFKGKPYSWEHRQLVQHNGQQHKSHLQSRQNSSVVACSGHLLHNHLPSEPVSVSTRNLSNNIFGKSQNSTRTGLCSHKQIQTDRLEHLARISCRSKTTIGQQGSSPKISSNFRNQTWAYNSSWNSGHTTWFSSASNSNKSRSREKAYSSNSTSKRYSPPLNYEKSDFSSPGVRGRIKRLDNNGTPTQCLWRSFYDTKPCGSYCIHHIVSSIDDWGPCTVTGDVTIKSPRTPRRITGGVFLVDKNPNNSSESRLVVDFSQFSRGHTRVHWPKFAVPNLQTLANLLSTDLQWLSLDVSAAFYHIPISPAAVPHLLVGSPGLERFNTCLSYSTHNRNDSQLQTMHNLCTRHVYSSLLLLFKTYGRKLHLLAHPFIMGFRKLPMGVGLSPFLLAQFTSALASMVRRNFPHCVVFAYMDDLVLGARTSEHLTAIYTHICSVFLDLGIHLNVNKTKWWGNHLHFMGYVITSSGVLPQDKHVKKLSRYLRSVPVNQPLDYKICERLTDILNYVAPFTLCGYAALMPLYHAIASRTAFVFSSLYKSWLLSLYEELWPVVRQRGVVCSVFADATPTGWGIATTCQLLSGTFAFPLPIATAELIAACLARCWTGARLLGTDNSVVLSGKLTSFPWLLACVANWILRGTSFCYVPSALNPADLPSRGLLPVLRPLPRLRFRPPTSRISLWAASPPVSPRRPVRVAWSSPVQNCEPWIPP
Source text: as §2, §3, §1, §4, §5

[5] = tested on: HBV replication; settings: patients with chronic hepatitis B; Weller et al 1982, 1983; cited from earlier work
[6] = target: T2, WHV DNA polymerase; assay: Analog as alternate substrate of WHV DNA polymerase; type: biochemical
[7] = Solubility in water; type: physicochemical
Source text: These compounds are soluble in water and therefore water or water based solutions are preferred as solvents for treating patients. The solubilities are as follows:
The solubility of these compounds can be increased by adding acid or base to the aqueous solvent.

[8] = water, at 28°, read-out: Solubility

SMILES: Nc1nc2c(ncn2COCCOP(=O)(O)OP(=O)(O)OP(=O)(O)O)c(=O)[nH]1 [ACVTP]
- DNA synthesis when the natural triphosphate is substituted by the analog [1]: did not increase the polymerization process
- ID50 relative to ID50 of FIACTP ([2]; HBV DNA polymerase): 18 times
- Nature of inhibition (Lineweaver-Burk plots) ([2]; HBV DNA polymerase): competitive
- Incorporation of [3H] dTMP with analog instead of dGTP ([3]; 5 um ACVTP instead of dGTP, first 120 min): no incorporation
- HBV DNA synthesis when reaction is started with analog and dGTP together ([3]; ACVTP 5 uM and dGTP 100 uM from start): a significant DNA synthesis was observed
- HBV DNA synthesis after addition of the normal substrate at 120 min of reaction with the analog [3]: no DNA synthesis was observed
- ID50 relative to ID50 of FIACTP ([4]; WHV DNA polymerase): 18 times
- Affinity of WHV DNA polymerase to the analog compared with HBV DNA polymerase [4]: lower affinity

SMILES: Nc1nc2c(ncn2COCCO)c(=O)[nH]1 [ACV]
- In vivo inhibition of HBV replication [5]: inhibition of HBV replication

SMILES: O=c1[nH]c(=O)n([C@H]2C[C@H](O)[C@@H](COP(=O)(O)OP(=O)(O)OP(=O)(O)O)O2)cc1/C=C/Br [BVdUTP]
- DNA synthesized with analog as alternate substrate (agarose gel electrophoresis) ([6]; WHV DNA): Only incomplete filling of the single stranded region
- Efficiency as alternate substrate ([6]; WHV DNA polymerase): most efficient alternate substrate
- DNA synthesized with analog as alternate substrate (agarose gel electrophoresis) ([1]; HBV DNA): Only incomplete filling of the single stranded region
- Efficiency as alternate substrate ([1]; HBV DNA polymerase): most efficient alternate substrate
- Viral DNA syntheses with dTTP substituted by the analog ([1]; after 3 h of reaction): 46% of the control
- Viral DNA syntheses with dTTP substituted by the analog ([1]; after 4 h of reaction): 67% of the optimal activity
- ID50 relative to ID50 of FIACTP ([2]; HBV DNA polymerase): 5 times
- Nature of inhibition (Lineweaver-Burk plots) ([2]; HBV DNA polymerase): competitive
- ID50 relative to ID50 of FIACTP ([4]; WHV DNA polymerase): 5 times
- Affinity of WHV DNA polymerase to the analog compared with HBV DNA polymerase [4]: lower affinity

SMILES: Nc1nc(=O)n([C@@H]2O[C@H](CO)[C@@H](O)[C@@H]2F)cc1I [FIAC, 2'-fluoro-2'-deoxy-arabinosyl-5-iodocytosine]
- solubility ([7]; water with 1 eq hcl, aqueous solvent with about one molar equivalent of hydrochloric acid, read-out: Solubility with added acid): ~250 mg/mL
- solubility ([7]; water, at 21°, read-out: Solubility): 7.2 mg/mL (≈ 19.4 mM)

SMILES: Nc1nc(=O)n([C@@H]2O[C@H](COP(=O)(O)OP(=O)(O)OP(=O)(O)O)[C@@H](O)[C@@H]2F)cc1I [FIACTP]
- Incorporation of [3H] dAMP with the analog instead of dCTP ([1]; after 3 h of reaction): about 10 % of the control
- IC50 ([2]; HBV DNA polymerase, radioactive triphosphate at 2 to 3 times Km, remaining nucleotides 50 uM, read-out: ID50 (concentration of triphosphate required to inhibit 50 percent of DNA polymerase)): 50 nM
- Nature of inhibition (Lineweaver-Burk plots) ([2]; HBV DNA polymerase): competitive
- Relative efficiency as inhibitor of HBV DNA polymerase [2]: most efficient inhibitor
- IC50 ([4]; WHV DNA polymerase, radioactive triphosphate at 2 to 3 times Km, remaining nucleotides 50 uM, read-out: ID50 (concentration of triphosphate required to inhibit 50 percent of DNA polymerase)): 50 nM
- Affinity of WHV DNA polymerase to the analog compared with HBV DNA polymerase [4]: lower affinity

SMILES: O=c1[nH]c(=O)n([C@@H]2O[C@H](CO)[C@@H](O)[C@@H]2F)cc1I [FIAU, 2'-fluoro-2'-deoxy-arabinosyl-5-iodouracil]
- Solubility with added base ([7]; aqueous solvent with one equivalent of sodium hydroxide (sodium salt)): increased many fold
- solubility [7, 8]: 4 mg/mL (≈ 10.8 mM)

SMILES: Cc1cn([C@@H]2O[C@H](CO)[C@@H](O)[C@@H]2F)c(=O)[nH]c1=O [FMAU, 2'-fluoro-2'-deoxy-arabinosyl-5-methyluracil]
- solubility ([7]; water, at 24°, read-out: Solubility): 66 mg/mL (≈ 254 mM)
- solubility [7, 8]: 81 mg/mL (≈ 311 mM)

SMILES: Nc1ncnc2c1ncn2[C@@H]1O[C@H](COP(=O)(O)OP(=O)(O)OP(=O)(O)O)[C@@H](O)[C@@H]1O [ara-ATP]
- HBV DNA synthesis after addition of the normal substrate at 120 min of reaction with the analog [3]: increased the HBV DNA synthesis

SMILES: Nc1ccn([C@@H]2O[C@H](COP(=O)(O)OP(=O)(O)OP(=O)(O)O)[C@@H](O)[C@@H]2O)c(=O)n1 [ara-CTP]
- DNA synthesis when the natural triphosphate is substituted by the analog [1]: no significant incorporation
- Relative efficiency as inhibitor of HBV DNA polymerase [2]: least efficient
- HBV DNA synthesis after addition of the normal substrate at 120 min of reaction with the analog [3]: increased the HBV DNA synthesis

SMILES: Cc1cn([C@@H]2O[C@H](COP(=O)(O)OP(=O)(O)OP(=O)(O)O)[C@@H](O)[C@@H]2O)c(=O)[nH]c1=O [ara-TTP]
- DNA synthesis when the natural triphosphate is substituted by the analog [1]: no significant DNA synthesis
